Test results taken from US9695155B2, “Herbicidal substituted pyrimidinyloxy benzene compounds” (E. I. DU PONT DE NEMOURS AND COMPANY, priority 2013, dated 2017).

Key:
large (Lg) crabgrass [1] = test: Test A postemergence; assay type: in vivo, Digitaria sanguinalis; conditions: 0 to 100 scale where 0 is no effect and 100 is complete control
Summary of the method: (§1)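 Scoring: eye-based comparison with untreated controls, 0 for no effect through 100 for complete control, at about day 10. Treatments: directed soil spray preemergence; foliar spray postemergence on 2–10 cm plants at the one- to two-leaf stage. Medium: loam soil with sand.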

giant foxtail = test: Test A postemergence; assay type: in vivo, Setaria faberii; conditions: 0 to 100 scale where 0 is no effect and 100 is complete control
Summary of the method: as §1

morningglory = test: Test A postemergence; assay type: in vivo, Ipomoea spp.; conditions: 0 to 100 scale where 0 is no effect and 100 is complete control
Summary of the method: as §1

corn = test: Test A postemergence; assay type: in vivo, Zea mays; conditions: 0 to 100 scale where 0 is no effect and 100 is complete control
Summary of the method: as §1

large (Lg) crabgrass [2] = test: Test C preemergence; assay type: in vivo, Digitaria sanguinalis; conditions: for Crabgrass, Large plant response rating: preemergence; for Plant response rating, Crabgrass, Large: Preemergence, 31 g ai/ha, scale 0 to 100, 0 no effect, 100 complete control
Summary of the method: (§2)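 Seeds are planted in blended loam soil and sand and treated preemergence, while seedlings in a peat moss/vermiculite medium receive postemergence sprays at 2 to 18 cm height. All plants stay in the greenhouse for 13 to 15 days before visual comparison with controls on a 0–100 scale.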

yellow nutsedge = test: Test C preemergence; assay type: in vivo, Cyperus esculentus; conditions: for Nutsedge, Yellow plant response rating: preemergence
Summary of the method: as §2

pigweed [3] = test: Test C preemergence; assay type: in vivo, Amaranthus retroflexus; conditions: for Pigweed plant response rating: preemergence
Summary of the method: as §2

waterhemp = test: Test C preemergence; assay type: in vivo, Amaranthus rudis; conditions: for Waterhemp plant response rating: preemergence
Summary of the method: as §2

Italian ryegrass = test: Test C postemergence; assay type: in vivo, Lolium multiflorum
Summary of the method: as §2

pigweed [4] = test: Test C postemergence; assay type: in vivo, Amaranthus retroflexus
Summary of the method: as §2

kochia = test: Test C postemergence; assay type: in vivo, Kochia scoparia; conditions: for Kochia plant response rating / Plant response rating, Kochia: scale 0 to 100 (0 no effect, 100 complete control)
Summary of the method: as §2

velvetleaf = test: Test C postemergence; assay type: in vivo, Abutilon theophrasti
Summary of the method: as §2

chickweed = test: Test C postemergence; assay type: in vivo, Stellaria media; conditions: for Chickweed plant response rating / Plant response rating, Chickweed: scale 0 to 100 (0 no effect, 100 complete control)
Summary of the method: as §2

[5] = 16 g ai/ha, scale 0 to 100 (0 no effect, 100 complete control)
[6] = 62 g ai/ha, scale 0 (no effect) to 100 (complete control)
[7] = 125 g ai/ha, scale 0 (no effect) to 100 (complete control)
[8] = Preemergence, 31 g ai/ha, scale 0 to 100, 0 no effect, 100 complete control
[9] = Postemergence, 31 g ai/ha, scale 0 to 100 (0 no effect, 100 complete control), 13 to 15 days
[10] = Postemergence, 62 g ai/ha, scale 0 to 100 (0 no effect, 100 complete control)
[11] = 16 g ai/ha, postemergence, visual rating, 13 to 15 days
[12] = Postemergence, 31 g ai/ha, 13 to 15 days
[13] = 16 g ai/ha, postemergence, 0 is no effect, 100 is complete control
[14] = 31 g ai/ha, postemergence, visual rating, scale 0 to 100 (0 no effect, 100 complete control), 13 to 15 days
[15] = 125 g ai/ha, postemergence, visual rating, scale 0 to 100 (0 no effect, 100 complete control)
[16] = 31 g ai/ha, postemergence, visual rating, 13 to 15 days
[17] = 125 g ai/ha, postemergence, visual rating

N#Cc1cccc(Oc2ncc(Cl)cn2)c1-n1cc(OC(F)F)cn1 [Compound 97]
Plant response rating, Crabgrass, Large (large (Lg) crabgrass [1]; 125 g ai/ha): 90 | Plant response rating, Crabgrass, Large (large (Lg) crabgrass [1]; 500 g ai/ha): 100 | Plant response rating, Foxtail, Giant (giant foxtail; 125 g ai/ha): 90 | Plant response rating, Foxtail, Giant (giant foxtail; 500 g ai/ha): 90 | Plant response rating, Morningglory (morningglory; 125 g ai/ha): 90 | Plant response rating, Morningglory (morningglory; 500 g ai/ha): 100 | Plant response rating, Corn (corn; 125 g ai/ha): 60 | Plant response rating, Corn (corn; 500 g ai/ha): 90 | Crabgrass, Large plant response rating (large (Lg) crabgrass [2]; [5]): 98 | Crabgrass, Large plant response rating (large (Lg) crabgrass [2]; [6]): 100 | Crabgrass, Large plant response rating (large (Lg) crabgrass [2]; [7]): 100 | Plant response rating, Crabgrass, Large (large (Lg) crabgrass [2]): 100 | Nutsedge, Yellow plant response rating (yellow nutsedge; [5]): 10 | Nutsedge, Yellow plant response rating (yellow nutsedge; [6]): 60 | Nutsedge, Yellow plant response rating (yellow nutsedge; [7]): 90 | Plant response rating, Nutsedge, Yellow (yellow nutsedge; [8]): 20 | Pigweed plant response rating (pigweed [3]; [5]): 100 | Pigweed plant response rating (pigweed [3]; [6]): 100 | Pigweed plant response rating (pigweed [3]; [7]): 100 | Plant response rating, Pigweed (pigweed [3]; [8]): 100 | Waterhemp plant response rating (waterhemp; [5]): 100 | Waterhemp plant response rating (waterhemp; [6]): 100 | Waterhemp plant response rating (waterhemp; [7]): 100 | Plant response rating, Waterhemp (waterhemp; [8]): 100 | Plant response rating (0 to 100), Ryegrass, Italian (Italian ryegrass; 125 g ai/ha, postemergence): 15 | Plant response rating, Ryegrass, Italian (Italian ryegrass; [9]): 5 | Plant response rating, Ryegrass, Italian (Italian ryegrass; [10]): 5 | Plant response rating (0 to 100), Pigweed (pigweed [4]; 125 g ai/ha, postemergence): 95 | Plant response rating, Pigweed (pigweed [4]; [9]): 85 | Plant response rating, Pigweed (pigweed [4]; [10]): 85 | Kochia plant response rating (kochia; [11]): 80 | Plant response rating (0 to 100), Kochia (kochia; 125 g ai/ha, postemergence): 100 | Plant response rating, Kochia (kochia; [12]): 90 | Plant response rating, Kochia (kochia; Postemergence, 62 g ai/ha): 95 | Plant response rating (0 to 100), Velvetleaf (velvetleaf; 125 g ai/ha, postemergence): 70 | Plant response rating, Velvetleaf (velvetleaf; [9]): 40 | Plant response rating, Velvetleaf (velvetleaf; [10]): 75 | Chickweed plant response rating (chickweed; [11]): 70 | Plant response rating (0 to 100), Chickweed (chickweed; 125 g ai/ha, postemergence): 90 | Plant response rating, Chickweed (chickweed; [12]): 60 | Plant response rating, Chickweed (chickweed; Postemergence, 62 g ai/ha): 80

Fc1cnc(Oc2cccc(C(F)F)c2-n2cc(C(F)(F)F)cn2)nc1 [Compound 164]
Crabgrass, Large plant response rating (large (Lg) crabgrass [1]; 125 g ai/ha): 80 | Plant response rating, Crabgrass, Large (large (Lg) crabgrass [1]; 500 g ai/ha): 100 | Foxtail, Giant plant response rating (giant foxtail; 125 g ai/ha): 90 | Plant response rating, Foxtail, Giant (giant foxtail; 500 g ai/ha): 100 | Morningglory plant response rating (morningglory; 125 g ai/ha): 80 | Plant response rating, Morningglory (morningglory; 500 g ai/ha): 100 | Corn plant response rating (corn; 125 g ai/ha): 40 | Plant response rating, Corn (corn; 500 g ai/ha): 90 | Crabgrass, Large plant response rating (large (Lg) crabgrass [2]; [5]): 75 | Crabgrass, Large plant response rating (large (Lg) crabgrass [2]; [6]): 100 | Crabgrass, Large plant response rating (large (Lg) crabgrass [2]; [7]): 100 | Plant response rating, Crabgrass, Large (large (Lg) crabgrass [2]): 85 | Nutsedge, Yellow plant response rating (yellow nutsedge; [5]): 0 | Nutsedge, Yellow plant response rating (yellow nutsedge; [6]): 20 | Nutsedge, Yellow plant response rating (yellow nutsedge; [7]): 25 | Pigweed plant response rating (pigweed [3]; [5]): 98 | Pigweed plant response rating (pigweed [3]; [6]): 100 | Pigweed plant response rating (pigweed [3]; [7]): 98 | Waterhemp plant response rating (waterhemp; [5]): 85 | Waterhemp plant response rating (waterhemp; [6]): 100 | Waterhemp plant response rating (waterhemp; [7]): 100 | Plant response rating (0 to 100), Ryegrass, Italian (Italian ryegrass; [13]): 0 | Ryegrass, Italian plant response rating (Italian ryegrass; [14]): 0 | Plant response rating, Ryegrass, Italian (Italian ryegrass; [15]): 0 | Plant response rating, Ryegrass, Italian (Italian ryegrass; [10]): 0 | Plant response rating (0 to 100), Pigweed (pigweed [4]; [13]): 50 | Pigweed plant response rating (pigweed [4]; [14]): 75 | Plant response rating, Pigweed (pigweed [4]; [15]): 80 | Plant response rating, Pigweed (pigweed [4]; [10]): 75 | Plant response rating (0 to 100), Kochia (kochia; [13]): 80 | Kochia plant response rating (kochia; [16]): 90 | Plant response rating, Kochia (kochia; [17]): 95 | Plant response rating, Kochia (kochia; Postemergence, 62 g ai/ha): 90 | Velvetleaf plant response rating (velvetleaf; [14]): 15 | Plant response rating, Velvetleaf (velvetleaf; [15]): 65 | Plant response rating, Velvetleaf (velvetleaf; [10]): 40 | Plant response rating (0 to 100), Chickweed (chickweed; [13]): 45 | Chickweed plant response rating (chickweed; [16]): 50 | Plant response rating, Chickweed (chickweed; [17]): 90 | Plant response rating, Chickweed (chickweed; Postemergence, 62 g ai/ha): 80
